The values that follow come from BindingDB's records for doi:10.1007/bf02246453 (University of Turku, 1996).

By Ki is commonly meant a dissociation constant, usually derived from enzyme kinetics or from competition with a known ligand.

Assay [1] addresses T1, 5-hydroxytryptamine receptor 2C (Rattus norvegicus, UniProt P08909).
T1 sequence (P08909 whole entry): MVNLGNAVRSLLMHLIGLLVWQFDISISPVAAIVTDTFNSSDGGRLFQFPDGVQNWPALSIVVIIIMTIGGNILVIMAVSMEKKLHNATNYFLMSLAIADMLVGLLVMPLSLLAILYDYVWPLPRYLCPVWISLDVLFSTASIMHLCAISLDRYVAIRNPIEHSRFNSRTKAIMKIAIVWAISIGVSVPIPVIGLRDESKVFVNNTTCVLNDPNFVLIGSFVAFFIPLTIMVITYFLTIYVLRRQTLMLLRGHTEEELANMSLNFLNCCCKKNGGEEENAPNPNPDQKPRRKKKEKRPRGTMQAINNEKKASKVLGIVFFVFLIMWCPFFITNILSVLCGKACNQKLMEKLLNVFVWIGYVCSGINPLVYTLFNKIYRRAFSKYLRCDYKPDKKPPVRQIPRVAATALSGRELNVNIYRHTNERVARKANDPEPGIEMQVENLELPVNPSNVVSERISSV

The target of assay [2] is 5-hydroxytryptamine receptor 2A (Rattus norvegicus, UniProt P14842).
5-hydroxytryptamine receptor 2A, sequence (P14842 whole entry): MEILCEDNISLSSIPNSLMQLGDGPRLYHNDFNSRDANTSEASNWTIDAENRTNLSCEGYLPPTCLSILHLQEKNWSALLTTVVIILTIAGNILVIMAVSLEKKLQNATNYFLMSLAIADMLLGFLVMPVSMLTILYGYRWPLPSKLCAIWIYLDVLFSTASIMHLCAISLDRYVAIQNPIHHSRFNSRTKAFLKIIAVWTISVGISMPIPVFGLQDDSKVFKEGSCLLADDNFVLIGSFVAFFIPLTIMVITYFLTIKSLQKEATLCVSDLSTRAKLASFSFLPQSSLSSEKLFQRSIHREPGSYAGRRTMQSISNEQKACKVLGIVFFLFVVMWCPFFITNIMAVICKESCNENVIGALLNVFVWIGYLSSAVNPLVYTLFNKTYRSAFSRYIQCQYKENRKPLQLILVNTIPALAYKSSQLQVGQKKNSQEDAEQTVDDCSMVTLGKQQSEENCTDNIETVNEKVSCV

Structures are written as SMILES. Structures can show the parent of a compound that is named as a salt.

With `CNCCC=C1c2ccccc2CCc2ccccc21` [NORTRIPTYLINE], the Ki in assay [1] is 8.5 nM. `C#CCN(C)CCCOc1ccc(Cl)cc1Cl` [US8633208, Clorgyline] registered a Ki in assay [1] of 1000 nM. As for `NCC[C@H](Oc1ccc(C(F)(F)F)cc1)c1ccccc1` [NORFLUOXETINE], the Ki in assay [1] came to 157 nM. In assay [1], `CN(C)CCCN1c2ccccc2CCc2ccccc21` gave a Ki of 94 nM.

`CN(C)CCC=C1c2ccccc2CCc2ccccc21`: the Ki in assay [2] and in assay [1] was 4.3 nM throughout. On to `CN(C)CCCn1c2c(c3ccccc31)CCCCCC2` [CAS_5560-72-5], for which, in assay [1], the Ki was determined as 206 nM.

Turning to `O=c1n(CCCN2CCN(c3cccc(Cl)c3)CC2)nc2ccccn12` [2-{3-[4-(3-chlorophenyl)piperazin-1-yl]propyl}[1,2,4]triazolo[4,3-a]pyridin-3(2H)-one], the Ki in assay [1] came out at 193 nM. In assay [1], `CN(C)CCCC1(c2ccc(F)cc2)OCc2cc(C#N)ccc21` (stereo unspecified) [CITALOPRAM HYDROBROMIDE] returned a Ki of 269 nM. Still for that read-out and setting: as for `CNCCCN1c2ccccc2CCc2ccccc21` [Desmethylimipramine], the figure is 244 nM; as for `CN(C)C/C=C(/c1ccc(Br)cc1)c1cccnc1` [cis-[3-(4-Bromo-phenyl)-3-pyridin-3-yl-allyl]-dimethyl-amine;HCl], 1000 nM.
